The results in this text go back to patent publication US10669545B2, “Tumor cell malignant transformation suppressor and anti-tumor agent” (JAPAN SCIENCE AND TECHNOLOGY AGENCY, priority 2015, dated 2020).

What all share (format): cell-based, human
One data set relates to SK-MEL-28 cells. Put plainly: Cell morphology after siRNA transfection, SK-MEL-28 cells. To be noted: not shown.
For data set [1], the system named is stably Zic5 gene-expressed line (SK-MEL-28 cells). Put plainly: Transwell Migration Assay, stably Zic5 gene-expressed line. The following applies: normalized to total viable cells; siNeg#1 set to 1. As to the method:
Specifically, the stably Zic5 gene-expressed line and the stably Flag-expressed line were seeded in a 24-well plate into which an insert with 8-μm sized pores (manufactured by BD Biosciences) was put and were cultured in RPMI 1640 medium containing 10% FBS, and then the number of migrated cells was counted.
The influence of suppressing MLC2 phosphorylation on migration ability of cells was analyzed. Specifically, Transwell Migration Assay was performed in the same manner as above with the stably Zic5 gene-expressed line and the stably Flag-expressed line in a state of being treated or non-treated with a ROCK inhibitor (Y27632), and then the number of migrated cells was counted.
The number of migrated cells was normalized to a total number of viable cells. A relative cell number (n=3) in which the number of migrated cells transfected with siNeg#1 of each cell was set to 1 is shown in FIG. 29. The statistical difference was determined by the Tukey's multiple comparisons of means test (**: P<0.01, *: P<0.05).

The next data set relates to A375 cells. Put plainly: Cell cycle analysis (PI staining, flow cytometry), A375 cells. To be noted: average value. How it is done: In cell cycle analysis, first, the cells were cultured in serum-free medium for 24 hours and then cultured in media containing 10% FBS for 24 hours. Next, the cells were fixed, stained with propidium iodide (PI), and then flow cytometry analysis (SH800, manufactured by Sony) was performed. The obtained data was analyzed using analysis software, FlowJo (manufactured by TOMY DIGITAL BIOLOGY, Tokyo, Japan). As a result, a sub-G1 population of cells increased in the cells in which Zic5 gene knockdown occurred.
Furthermore, a cell cycle of each cell was examined with respect to A375 cells. An average value (SD) of percentages (%) of cells in G1 population, S population, and G2M population of each cell is shown in Table 9. […] As a result, percentages of cells in the S population and G2M population of A375 cells were reduced by PDGFD gene knockdown.
Background: A flow cytometer gives signals particle by particle.

For data set [2], the system named is phosphorylated FAK (pFAK). The data set is described as follows: Western blotting of phosphorylated FAK. The following applies: siRNA-transfected cells vs siNeg#1; not shown. From the text:
Because phosphorylation of focal adhesion kinase (FAK), which is activated at Focal adhesion, has been associated with melanoma malignancy (refer to NPL 19), FAK change by ZIC5 was examined. Furthermore, focusing on Integrin, alpha 6 (ITGA6) and platelet-derived growth factor D (PDGFD) among the Focal adhesion-related genes in the altered genes by Zic5 knockdown, change in cells was examined. Specifically, a level of phosphorylated FAK (pFAK), total FAK (FAK), ITGA6, pro-PDGFD, and β-actin in A375 cells transfected with siZIC5 or siNeg was assessed by western blotting. Western blotting was performed in the same manner as above except that anti-pFAK antibody (manufactured by Signalway Antibody), anti-FAK antibody (manufactured by Acris), anti-β-actin antibody (manufactured by Sigma), anti-ITGA6 antibody (manufactured by GeneTex), and anti-PDGFD antibody (manufactured by Santa Cruz) were used.
(In general: Immunoblotting shows a protein as a band on a membrane.)

Another data set relates to DU145 cells. The data set is described as follows: Annexin V-positive cells, DU145 cells. The following applies: siRNA then docetaxel 5 nM for 24 hours. As to the method:
The percentage of Annexin V-positive cells was measured as follows. First, FITC labeled Annexin V (manufactured by MBL, Nagoya, Japan) and Hoechst33342 were added to each cell and incubated for 40 minutes. Next, a stained state of the incubated cells was analyzed by using DAPI filter and FITC filter of an imaging cytometer, “In Cell Analyzer 2000” (manufactured by GE healthcare). Percentage (%) of […] was determined by In Cell Analyzer Workstation 3.7 (manufactured by GE healthcare). The statistical difference was determined by the Tukey's multiple comparisons of means test (**: P<0.01, *: P<0.05).

With “siPDGFD#1: siRNA for PDGFD gene; targeting sequence CAGGAATTACTCGGTCAATAT (SEQ. NO. 28) (listed as DNA, chemistry not given here)”, the “morphological change of cells after siRNA transfection” value in the data set with SK-MEL-28 cells was “morphological change occurred”. In data set [1], the “increase in the number of migrated cells by Zic5 gene overexpression” value is reported as “completely suppressed”. Moreover, in the data set with A375 cells, the “percentage of cells in G1 population” value came out at 71.6%, the “percentage of cells in G2M population” value was found to be 18.6% and the “percentage of cells in S population” value is 8.1%. The “FAK phosphorylation (pFAK level)” value in data set [2] was “reduced FAK phosphorylation”. The “apoptosis induced by docetaxel (percentage of Annexin V-positive cells)” value in the data set on DU145 cells is recorded as “significantly increased”.
